# Patent US7029879B1, “Iodine uptake restoration in thyroid cancer” (University of Kentucky Research Foundation, priority 1999, dated 2006)
# Key:
# [1] = tested on: TTF-1 expression and thyroglobulin promoter activity; conditions: transformed rat thyroid cell line (activated RAS oncogene); cited from earlier work
# [2] = tested on: KAT-10 cells (papillary carcinoma); test: Iodide uptake assay (specific 125I uptake), KAT-10; format: cell-based, human
# Description: (§1) Cell lines, for evaluation of iodide-uptake and hNIS expression, were grown in phenol-red-free RPMI 1640 with 5% fetal bovine serum (FBS), 100 nM sodium selenite and 0.1 nM bovine TSH (basal medium) (20). They were plated at a density of 3–5×10^4 cells/9.4 cm^2, in triplicate in basal medium, and grown for 2–3 days at 37° C. in 5% CO2. They were treated with dimethylsulfoxide (DMSO, 25 μM daily for 3 days), sodium butyrate (0.5 or 1.0 mM), phenylacetate (pH 7.0, 5 or 10 mM) or 5-azacytidine (0.5 or 1.0 μM, in 25 μM DMSO, daily for 3 days) until control cells were 80% confluent (3–4 days), then changed to fresh basal medium and grown for an additional 24 hrs.
# (§2) Cell lines, treated with differentiation agents and control cultures, were washed with 2 mL of buffer containing: 10 mM HEPES ([…]), 5.5 mM glucose, 5.4 mM KCl, 1.3 mM CaCl2, 0.4 mM Na2HPO4, 0.44 mM KH2PO4, and either 137 mM NaCl (Buffer A) or 100 mM choline chloride (Buffer B). After a 60 min incubation in the same buffer supplemented with Na(^125I) (1.0 μCi/2 mL) and 1.0 μM NaI, cells were washed once with Buffer A, lysed with 0.1 M NaOH and gamma counted (5). A parallel set of dishes, similarly plated and treated, were used for normalization of uptake activity, using 3-(4,5-dimethylthiazol-2-yl)-2,5-diphenyltetrazolium bromide (MTT) assay (25) as an index of cell viability. Gamma counts of cells incubated in Buffer B were subtracted from counts of cells incubated in Buffer A, under corresponding conditions, to account for non-specific binding of radioiodide.
# [3] = tested on: KAK-1 cells (benign follicular adenoma); test: Iodide uptake assay (specific 125I uptake), KAK-1; format: cell-based, human; conditions: for Specific ^125I Uptake: KAK-1
# Description: as §1, §2
# hNIS mRNA = hNIS mRNA re-expression by RT-PCR in treated human thyroid cell lines; format: cell-based; conditions: for hNIS mRNA expression despite treatment: MRO87, WRO82 and KAT-7 cell lines
# Description: as §1
# Total RNA and genomic DNA from: normal human thyroid, thyroid tumors, and cell lines (treated with agents described above), were isolated by the acid-guanidinium-phenol-chloroform method (21). All surgical samples were snap-frozen and stored at −80° C. until processed by homogenization in Trizol reagent (Life Technologies, Gaithersburg, Md.) while still frozen. Complementary DNA (cDNA) was synthesized from 1.0 μg of total RNA using MMLV reverse transcriptase (RT) with random-hexamer primers (Clontech, Palo Alto, Calif.). Each 50 μL polymerase chain reaction (PCR) vessel contained: 60 mM Tris HCl, pH 9.0, 15 mM ammonium sulfate, 3.5 mM MgCl2 (1.5 mM for hTTF-1), 250 μM dNTPs (Boehringer-Mannheim, Indianapolis, Ind.), 0.2 μM each primer pair, 1 U AmpliTaq DNA polymerase (Perkin-Elmer, Norwalk, Conn.), 0.2 μg TaqStart Antibody (Clontech) and 3% cDNA. β-actin amplification (primers, Stratagene, La Jolla, Calif.) confirmed cDNA integrity, purity, and template equivalence for semiquantification. PCR primers (upstream 5′ to 3′/downstream 5′ to 3′, in all cases) used for amplification were, for hNIS (5), CTGCCCCAGACCAGTACAT GCC (SEQ ID NO. 1)/[…] (SEQ ID NO. 2) (to amplify a coding region spanning four introns (4) yielding a 303 bp product from cDNA) and for Pax-8, […] (SEQ ID NO. 3)/[…] (SEQ ID NO. 4)((22) to amplify a 329 bp product). Amplification conditions for hNIS and Pax-8 were: denaturation (95° C.×5 min); 40 cycles of 20 sec at 95° C. and 60 sec at 68° C.; followed by extension at 72° C. for 3 min. The hTTF-1 product was amplified with intron spanning primers, […] (SEQ ID NO. 5)/[…] (SEQ ID NO. 6), which amplify a 263 bp fragment. The conditions were: 95° C. for 5 min; 45 cycles of 95° C. for 20 sec, 60° C. for 60 sec, and 72° C. for 30 sec; followed by extension at 72° C. for 3 min. The RT-PCR products were resolved on 2% agarose gels and visualized by ethidium bromide staining.
# [4] = tested on: NPA'87 cells (papillary carcinoma); test: Iodide uptake assay (specific 125I uptake), NPA'87; format: cell-based, human; conditions: for Specific ^125I Uptake: NPA'87
# Description: as §1, §2
# KAT-10 cells = test: Lethality of culture additive in cell culture; format: cell-based, human; conditions: AzaC high, 1.0 μM
# Description: as §1
# [5] = tested on: KAT-5 cells (papillary carcinoma); test: Iodide uptake assay (specific 125I uptake), KAT-5; format: cell-based, human
# Description: as §1, §2
# [6] = low: AzaC 0.5 μM, NaB 0.5 mM, PhAc 5.0 mM
# [7] = high: AzaC 1.0 μM, NaB 1.0 mM, PhAc 10 mM
# [8] = KAK-1, high: AzaC 1.0 μM, NaB 1.0 mM, PhAc 10 mM
# [9] = KAK-1, low: AzaC 0.5 μM, NaB 0.5 mM, PhAc 5.0 mM
# [10] = KAT-5, high: AzaC 1.0 μM, NaB 1.0 mM, PhAc 10 mM
# [11] = KAT-5, low: AzaC 0.5 μM, NaB 0.5 mM, PhAc 5.0 mM
# [12] = KAT-10, low: AzaC 0.5 μM, NaB 0.5 mM, PhAc 5.0 mM
# [13] = NPA'87, high: AzaC 1.0 μM, NaB 1.0 mM, PhAc 10 mM
# [14] = NPA'87, low: AzaC 0.5 μM, NaB 0.5 mM, PhAc 5.0 mM
SMILES,"Specific ^125I Uptake [2, 6]","Specific ^125I Uptake [3, 7]","Specific ^125I Uptake [3, 6]",hNIS mRNA (hNIS mRNA; [8]),hNIS mRNA (hNIS mRNA; [9]),hNIS mRNA (hNIS mRNA; [10]),hNIS mRNA (hNIS mRNA; [11]),hNIS mRNA (hNIS mRNA; [12]),hNIS mRNA expression despite treatment (hNIS mRNA),hNIS mRNA (hNIS mRNA; [13]),hNIS mRNA (hNIS mRNA; [14]),"Specific ^125I Uptake [4, 7]","Specific ^125I Uptake [4, 6]","Specific ^125I Uptake [5, 7]","Specific ^125I Uptake [5, 6]",further results
"Nc1ncn([C@@H]2O[C@H](CO)[C@@H](O)[C@H]2O)c(=O)n1 [AzaC, 5-azacytidine]",−,+,−,+,+,+,−,+,failed to express hNIS mRNA,+,−,+,−,−,−,"TTF-1 expression [1]: restored; thyroglobulin promoter activity [1]: restored; enhancement of ^125I uptake ([3]; KAK-1 cells, 0.5 μM 5-azacytidine): no enhancement of uptake; increase in ^125I uptake as compared with untreated cells ([3]; KAK-1 cells, 1.0 μM 5-azacytidine): greater than two-fold; re-expression of hNIS mRNA, comparison of the two concentrations (hNIS mRNA; KAK-1 cells, 0.5 μM vs 1.0 μM 5-azacytidine): comparable; increased iodide uptake ([4]; NPA'87 cells, 1.0 M 5-azacytidine (so in the source)): over 15 fold; Lethality of additive concentration for the cell line (KAT-10 cells): Lethal additive concentration for this cell line"
"CCCC(=O)[O-].[Na+] [NaB, sodium butyrate]",−,−,−,−,−,−,−,−,failed to express hNIS mRNA,+,−,−,−,−,−,"Specific ^125I Uptake ([2]; high: NaB 1.0 mM, PhAc 10 mM): −; hNIS mRNA (hNIS mRNA; KAT-10, high: NaB 1.0 mM, PhAc 10 mM): +; re-expression of hNIS mRNA (hNIS mRNA; NPA'87 and KAT-10): re-expression of hNIS mRNA; iodide uptake activity ([4]; NPA'87 cells, 1.0 mM sodium butyrate): slightly increased"
